Test results published in US8853424B2 (Japan Science and Technology Agency, priority 2008, dated 2014).
pIC50: −log10 of the molar value. Read-outs that look alike come from different tables or passages of the source.

Columns and labels:
transglutaminase (TGase) = experiment: Measurement of TG (TGase inhibitory activity, monodansyl cadaverine / N,N-dimethylcasein fluorescence, FDSS 3000); assay type: biochemical
Outline: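 Compound (1 μL of 10 mM stock) added to 0.1 mL reaction: 100 mM HEPES-NaOH pH 7.5, 1 mM CaCl2, 20 μM monodansyl cadaverine, 0.05 mg/mL N,N-dimethylcasein, 5 μg/mL TGase. Rate of fluorescence change at 340 nm measured; DMSO control set to 100; TG50 is the concentration halving activity.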

[1] = tested on: SOC (store operated calcium channel); experiment: Measurement of SOC IC50 (thapsigargin store depletion, calcium re-addition, CHO cells); assay type: cell-based; conditions: read-out: SOC IC50
Method: The SOC (store operated calcium channel)-suppressive action can be measured by the method described in the Example and using, for example, FDSS 3000.
CHO cell culture medium was replaced with a BSS solution which is an extracellular fluidfree of calcium, the compound of the present invention was added 1 min later, and 1 μM thapsigargin was allowed to act thereon 2 min later to deplete intracellular calcium store. […]

[2] = tested on: Truncated N-terminal huntington 150 Q-EGFP-Neuron 2a cells; experiment: Measurement of x-Fold (polyglutamine aggregation inhibitory activity); assay type: cell-based
Method: In the present invention, the polyglutamine aggregation inhibitory activity (x-Fold) can be measured, for example, by the method described in the Example.
The number of the aggregated cells, and the total number of cells were counted by Array Scan V T1 (manufactured by Cellomics, Pittuburg, USA), and the ratio of the aggregated cells to the total number of cells was determined (x-Fold). […]

[3] = TGase activity with compound (10 mM, 1 μL in 0.1 ml enzyme reaction solution), DMSO control taken as 100
[4] = TGase inhibitory activity value, Table 1
[5] = Cricetulus griseus, CHO, CHO cells, 1 μM thapsigargin, 2 mM calcium chloride
[6] = Cricetulus griseus, CHO, Table 1
[7] = polyglutamine aggregation inhibitory activity, Table 1
[8] = ratio of aggregated cells to total number of cells, compound 20 μM, 20 hr, almost 1 without compound, smaller = stronger inhibition
[9] = CHO cells, 1 μM thapsigargin, 2 mM calcium chloride

| TGase activity remaining (% of DMSO control = 100) (transglutaminase (TGase); [3]) | TGase activity remaining (% of DMSO control = 100) (transglutaminase (TGase); [4]) | pIC50 [1, 5] | pIC50 [1, 6] | Compound | x-Fold [2, 7] | x-Fold [2, 8] | other results |
| --- | --- | --- | --- | --- | --- | --- | --- |
| 93 | 93 | 6.30 | 6.30 | OB(c1ccccc1)c1ccc(B(O)c2ccccc2)cc1 [Example 252, 1,4-bis(phenylhydroxyboryl)benzene] | 0.95 | 0.95 |  |
| 113 | 113 | 6.30 | 6.30 | O=C1O[B-](c2ccccc2)(c2ccccc2)[NH2+]C1CO (centres unmarked) [Example 255, diphenyl(serinate-O,N)borane] | 0.94 | 0.94 |  |
| 67 | 67 | 5.60 | 5.60 | O=C1O[B-](c2ccccc2)(c2ccccc2)[NH2+]C1Cc1ccccc1 (centres unmarked) [Example 259, diphenyl(phenylalaninate-O,N)borane] | 0.97 | 0.97 |  |
| 146 |  | 5.52 | 5.52 | NCCC(N)C(=O)OB(c1ccccc1)c1ccccc1 (centres unmarked) [Example 263, diphenyl(2,4-diaminolactonate-O,N)borane] |  | 0.89 | TGase activity remaining (% of DMSO control = 100) (transglutaminase (TGase); TGase inhibitory activity value, Table 1, listed as 2045): 146; x-Fold ([2]; polyglutamine aggregation inhibitory activity, Table 1, listed as 2045): 0.89 |
| 84 | 84 | 5.52 | 5.52 | NC(CS)C(=O)OB(c1ccccc1)c1ccccc1 (centres unmarked) [Example 266, diphenyl(cysteinate-O,N)borane] | 0.87 | 0.87 |  |
| 111 |  | 6.15 | 6.15 | NC(=O)CC(N)C(=O)OB(c1ccccc1)c1ccccc1 (centres unmarked) [Example 270, diphenyl(asparaginate-O,N)borane] |  | 0.54 | TGase activity remaining (% of DMSO control = 100) (transglutaminase (TGase); TGase inhibitory activity value, Table 1, listed as 855): 111; x-Fold ([2]; polyglutamine aggregation inhibitory activity, Table 1, listed as 855): 0.54 |
| 83 |  | 6.52 | 6.52 | NCC(N)C(=O)OB(c1ccccc1)c1ccccc1 (centres unmarked) [Example 272, diphenyl(2,3-diaminopropionate-O,N)borane] |  | 0.09 | TGase activity remaining (% of DMSO control = 100) (transglutaminase (TGase); TGase inhibitory activity value, Table 1, listed as 2043): 83; x-Fold ([2]; polyglutamine aggregation inhibitory activity, Table 1, listed as 2043): 0.09 |
| 117 |  | 6.52 |  | NC(CCC(=O)O)C(=O)OB(c1ccccc1)c1ccc(Oc2ccc(B(OC(=O)C(N)CCC(=O)O)c3ccc(CO)cc3)cc2)cc1 (centres unmarked) [Example 275, (4-(phenyl-glutamic acid boryl)phenyl)-(4′-(hydroxymethylphenyl-glutamic acid boryl)phenyl)ether] |  | 0.67 |  |
| 105 | 105 | 6.52 | 6.52 | O=C(OB(c1ccccc1)c1ccccc1)C1CCCN1 (centres unmarked) [Example 277, diphenyl(prolinate-O,N)borane] | 0.98 | 0.98 |  |

The remaining lines, values behind:

| Compound | TGase activity remaining (% of DMSO control = 100) (transglutaminase (TGase); [3]) | TGase activity remaining (% of DMSO control = 100) (transglutaminase (TGase); [4]) | pIC50 [1, 5] | pIC50 [1, 6] | x-Fold [2, 7] | x-Fold [2, 8] | other results |
| --- | --- | --- | --- | --- | --- | --- | --- |
| O=C(OB(c1ccccc1)c1ccccc1)C1CC(O)CN1 (centres unmarked) [Example 268, diphenyl(hydroxyprolinate-O,N)borane] | 103 | 103 | 5.30 | 5.30 | 0.96 | 0.96 |  |
| NC(=O)CCC(N)C(=O)OB(c1ccccc1)c1ccccc1 (centres unmarked) [Example 269, diphenyl(glutaminate-O,N)borane] | 95 |  | 5.52 | 5.52 |  | 1.01 | TGase activity remaining (% of DMSO control = 100) (transglutaminase (TGase); TGase inhibitory activity value, Table 1, listed as 879): 95; x-Fold ([2]; polyglutamine aggregation inhibitory activity, Table 1, listed as 879): 1.01 |
| NCCCCC(N)C(=O)OB(c1ccccc1)c1ccccc1 (centres unmarked) [Example 271, diphenyl(lysinate-O,N)borane] | 109 | 109 | 6.30 | 6.30 | 1.07 | 1.07 |  |
| NC(=O)CCC(N)C(=O)OB(c1ccccc1)c1ccc(Oc2ccc(B(OC(=O)C(N)CCC(N)=O)c3ccccc3)cc2)cc1 (centres unmarked) [Example 273, bis(4,4′-(phenyl-glutamineboryl)phenyl)ether] | 83 |  |  |  |  | 0.56 | TGase activity remaining (% of DMSO control = 100) (transglutaminase (TGase); TGase inhibitory activity value, Table 1, listed as 1024): 83; pIC50 [1, 9]: 6.60; x-Fold ([2]; polyglutamine aggregation inhibitory activity, Table 1, listed as 1024): 0.56 |
| NC(=O)CC(N)C(=O)OB(c1ccccc1)c1ccc(Oc2ccc(B(OC(=O)C(N)CC(N)=O)c3ccccc3)cc2)cc1 (centres unmarked) [Example 274, bis(4,4′-(phenylasparagineboryl)phenyl)ether] | 56 |  |  |  |  | 0.59 | pIC50 [1, 9]: 6.52 |
| NCCOB(c1ccccc1)c1cccc(COCc2cccc(Oc3ccccc3)c2)c1 [Example 278, (3-phenoxybenzyl)-(3′-(phenyl-2-aminoethoxyboryl)benzyl)ether] | 2 | 2 | 6.52 | 6.52 | 1.08 | 1.08 |  |
| Cc1ccc(B(OC(=O)C(N)CC(N)=O)c2ccc(C)c(Cl)c2)cc1Cl (centres unmarked) [Example 282, di(3-chloro-4-methylphenyl)(asparaginate-O,N)borane] | 112 |  | 6.52 |  |  | 0.95 |  |
| Cc1ccc(B(Sc2ccccc2N)c2ccc(C)c(Cl)c2)cc1Cl [Example 283, di(3-chloro-4-methylphenyl) 2-aminophenylthioborane] | 12 | 12 | 6.05 | 6.05 | 0.83 | 0.83 |  |
| NCCSB(c1ccc(C(F)(F)F)cc1)c1ccc(C(F)(F)F)cc1 [Example 285, di(4-trifluoromethylphenyl) 2-aminoethylthioborane] | 51 | 51 | 5.70 | 5.70 | 0.99 | 0.99 |  |
| Cc1ccc(B(OC(=O)C(N)C(C)O)c2ccc(C)c(Cl)c2)cc1Cl (centres unmarked) [Example 291, di(3-chloro-4-methylphenyl)(allothreoninate-O,N)borane] | 50 | 50 | 6.30 | 6.30 | 1.02 | 1.02 |  |
| CCCCC(N)C(=O)OB(c1ccc(C)c(Cl)c1)c1ccc(C)c(Cl)c1 (centres unmarked) [Example 292, di(3-chloro-4-methylphenyl)(norloysinate-O,N)borane] | 146 |  | 6.00 | 6.00 |  | 1.00 | TGase activity remaining (% of DMSO control = 100) (transglutaminase (TGase); TGase inhibitory activity value, Table 1, listed as 5020): 146; x-Fold ([2]; polyglutamine aggregation inhibitory activity, Table 1, listed as 5020): 1.00 |
| CN(C)CCSB(c1ccccc1)c1ccccc1 [Example 294, diphenyl dimethylaminoethylthioborane] | 114 | 114 | 5.70 | 5.70 | 0.96 | 0.96 |  |
